In US6479435B1, “Diaryl ethers and processes for their preparation and herbicidal and desiccant compositions containing them” (ISK Americas Incorporated, priority 1997, dated 2002):

Experiments:
Assay type in all cases: in vivo
[1] = test system: upland rice (Oryza sp., var.Tebonnet, RICE); assay: Pre-emerge greenhouse test, crop damage rating; details: 125 g ai/ha, 14 days after application, rating scale 0-100
Summary of the method: (§1)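 Visual 0–100 injury rating (100 = all plants dead) taken 14 days after treatment. Rates of 125–1000 g ai/ha in acetone, 187 l/ha, were sprayed onto soil one day post-sowing; pots were surface-watered to incorporate, then bottom-watered.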

[2] = test system: field corn (Zea mays L., var. Dekalb 535, CORN); assay: Pre-emerge greenhouse test, crop damage rating; details: 14 days after application, rating scale 0-100
Summary of the method: as §1

[3] = test system: barnyardgrass (Echinochloa crusgalli, ECHCG); assay: Pre-emerge greenhouse herbicide test, phytotoxicity rating; details: 14 days after application, rating scale 0-100
Summary of the method: as §1

[4] = test system: velvetleaf (Abutilon theophrasti, ABUTH); assay: as above; details: 14 days after application, rating scale 0-100
Summary of the method: as §1

[5] = test system: redroot pigweed (Amaranthus retroflexus, AMARE); assay: as above; details: 14 days after application, rating scale 0-100
Summary of the method: as §1

[6] = test system: large crabgrass (Digitaria sanguinalis, DIGSA); assay: as above; details: 14 days after application, rating scale 0-100
Summary of the method: as §1

[7] = test system: sicklepod (Cassia obtusifolia, CASOB); assay: as above; details: 14 days after application, rating scale 0-100
Summary of the method: as §1

[8] = test system: lambsquarters (Chenopodium album, CHEAL); assay: as above; details: 14 days after application, rating scale 0-100
Summary of the method: as §1

[9] = test system: common ragweed (Ambrosia artemisiifolia L., AMBEL); assay: as above; details: 14 days after application, rating scale 0-100
Summary of the method: as §1

[10] = test system: ivyleaf morningglory (Ipomoea hederacea, IPOHE); assay: as above; details: 14 days after application, rating scale 0-100
Summary of the method: as §1

[11] = test system: Johnsongrass (Sorghum halepense, SORHA); assay: as above; details: 14 days after application, rating scale 0-100
Summary of the method: as §1

[12] = test system: green foxtail (Setaria viridis, SETVI); assay: as above; details: 14 days after application, rating scale 0-100
Summary of the method: as §1

[13] = test system: soybean (Glycine max L., var. Pella 86, SOY); assay: Post-emerge greenhouse test, crop damage rating; details: 14 days after application
Summary of the method: (§2)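 Scores use a 0 (no damage) to 100 (complete kill) scale, taken 14 days after a foliar spray. Acetone solutions with 0.25% v/v non-ionic surfactant were applied by track sprayer at 187 l/ha and 63-1000 g ai/ha to bottom-watered 2-3 leaf plants.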

[14] = test system: upland rice (Oryza sp., var.Tebonnet, RICE); assay: Post-emerge greenhouse test, crop damage rating; details: 14 days after application
Summary of the method: as §2

[15] = test system: field corn (Zea mays L., var. Dekalb 535, CORN); assay: Post-emerge greenhouse test, crop damage rating; details: 14 days after application
Summary of the method: as §2

[16] = test system: barnyardgrass (Echinochloa crusgalli, ECHCG); assay: Post-emerge greenhouse herbicide test, phytotoxicity rating; details: 14 days after application
Summary of the method: as §2

[17] = test system: velvetleaf (Abutilon theophrasti, ABUTH); assay: as above; details: 14 days after application
Summary of the method: as §2

[18] = test system: redroot pigweed (Amaranthus retroflexus, AMARE); assay: as above; details: 14 days after application
Summary of the method: as §2

[19] = test system: large crabgrass (Digitaria sanguinalis, DIGSA); assay: as above; details: 14 days after application
Summary of the method: as §2

[20] = test system: lambsquarters (Chenopodium album, CHEAL); assay: as above; details: 14 days after application
Summary of the method: as §2

[21] = test system: ivyleaf morningglory (Ipomoea hederacea, IPOHE); assay: as above; details: 14 days after application
Summary of the method: as §2

[22] = test system: Johnsongrass (Sorghum halepense, SORHA); assay: as above; details: 14 days after application
Summary of the method: as §2

[23] = test system: green foxtail (Setaria viridis, SETVI); assay: as above; details: 14 days after application
Summary of the method: as §2

[24] = test system: soybean (Glycine max L., var. Pella 86, SOY); assay: Pre-emerge greenhouse test, crop damage rating; details: 14 days after application, rating scale 0-100
Summary of the method: as §1

[25] = test system: common ragweed (Ambrosia artemisiifolia L., AMBEL); assay: Post-emerge greenhouse herbicide test, phytotoxicity rating; details: 14 days after application
Summary of the method: as §2

Cn1nc(-c2cc(Oc3ccc(C#N)cn3)c(Cl)cc2F)c(Cl)c1C(F)(F)F [Compound 1-4]
crop damage rating RICE [1]: 30
crop damage rating CORN ([2]; 125 g ai/ha): 10
crop damage rating CORN ([2]; 500 g ai/ha): 0
phytotoxicity rating ECHCG ([3]; 125 g ai/ha): 0
phytotoxicity rating ECHCG ([3]; 500 g ai/ha): 20
phytotoxicity rating ABUTH ([4]; 125 g ai/ha): 0
phytotoxicity rating ABUTH ([4]; 500 g ai/ha): 80
phytotoxicity rating AMARE ([5]; 125 g ai/ha): 100
phytotoxicity rating AMARE ([5]; 500 g ai/ha): 100
phytotoxicity rating DIGSA ([6]; 125 g ai/ha): 50
phytotoxicity rating DIGSA ([6]; 500 g ai/ha): 50
phytotoxicity rating CASOB ([7]; 125 g ai/ha): 0
phytotoxicity rating CASOB ([7]; 500 g ai/ha): 0
phytotoxicity rating CHEAL ([8]; 125 g ai/ha): 90
phytotoxicity rating CHEAL ([8]; 500 g ai/ha): 95
phytotoxicity rating AMBEL ([9]; 125 g ai/ha): 0
phytotoxicity rating AMBEL ([9]; 500 g ai/ha): 20
phytotoxicity rating IPOHE ([10]; 125 g ai/ha): 0
phytotoxicity rating IPOHE ([10]; 500 g ai/ha): 30
phytotoxicity rating SORHA ([11]; 125 g ai/ha): 20
phytotoxicity rating SORHA ([11]; 500 g ai/ha): 95
phytotoxicity rating SETVI ([12]; 125 g ai/ha): 90
phytotoxicity rating SETVI ([12]; 500 g ai/ha): 99
SOY crop damage rating (0-100) ([13]; 63 g al/ha): 0
SOY crop damage rating (0-100) ([13]; 500 g al/ha): 80
RICE crop damage rating (0-100) ([14]; 63 g al/ha): 20
RICE crop damage rating (0-100) ([14]; 500 g al/ha): 50
CORN crop damage rating (0-100) ([15]; 63 g al/ha): 0
CORN crop damage rating (0-100) ([15]; 500 g al/ha): 0
ECHCG phytotoxicity rating (0-100) ([16]; 63 g al/ha): 0
ECHCG phytotoxicity rating (0-100) ([16]; 500 g al/ha): 50
ABUTH phytotoxicity rating (0-100) ([17]; 63 g al/ha): 30
ABUTH phytotoxicity rating (0-100) ([17]; 500 g al/ha): 90
AMARE phytotoxicity rating (0-100) ([18]; 63 g al/ha): 100
AMARE phytotoxicity rating (0-100) ([18]; 500 g al/ha): 100
DIGSA phytotoxicity rating (0-100) ([19]; 63 g al/ha): 20
DIGSA phytotoxicity rating (0-100) ([19]; 500 g al/ha): 40
CHEAL phytotoxicity rating (0-100) ([20]; 63 g al/ha): 0
CHEAL phytotoxicity rating (0-100) ([20]; 500 g al/ha): 100
IPOHE phytotoxicity rating (0-100) ([21]; 63 g al/ha): 70
IPOHE phytotoxicity rating (0-100) ([21]; 500 g al/ha): 100
SORHA phytotoxicity rating (0-100) ([22]; 63 g al/ha): 40
SORHA phytotoxicity rating (0-100) ([22]; 500 g al/ha): 80
SETVI phytotoxicity rating (0-100) ([23]; 63 g al/ha): 0
SETVI phytotoxicity rating (0-100) ([23]; 500 g al/ha): 70
crop damage rating SOY ([24]; 125 g ai/ha): 10
crop damage rating SOY ([24]; 500 g ai/ha): 0
AMBEL phytotoxicity rating (0-100) ([25]; 63 g al/ha): 20
AMBEL phytotoxicity rating (0-100) ([25]; 500 g al/ha): 70
